ChEMBL document CHEMBL1138038, “Sequence-based design and discovery of peptide inhibitors of HIV-1 integrase: insight into the binding mode of the enzyme” (J Med Chem, 2006)
pIC50: −log10 of the molar value. Residues, ends and D or L forms follow the SMILES beside them.

Tests used:
[1] = biological target: T1, Human immunodeficiency virus type 1 integrase (Human immunodeficiency virus 1, UniProt Q7ZJM1); assay: Inhibition of wild type HIV1 integrase 3' processing activity
[2] = biological target: T1, Human immunodeficiency virus type 1 integrase; assay: Inhibition of wild type HIV1 integrase strand transfer activity

T1 sequence (Q7ZJM1 whole entry): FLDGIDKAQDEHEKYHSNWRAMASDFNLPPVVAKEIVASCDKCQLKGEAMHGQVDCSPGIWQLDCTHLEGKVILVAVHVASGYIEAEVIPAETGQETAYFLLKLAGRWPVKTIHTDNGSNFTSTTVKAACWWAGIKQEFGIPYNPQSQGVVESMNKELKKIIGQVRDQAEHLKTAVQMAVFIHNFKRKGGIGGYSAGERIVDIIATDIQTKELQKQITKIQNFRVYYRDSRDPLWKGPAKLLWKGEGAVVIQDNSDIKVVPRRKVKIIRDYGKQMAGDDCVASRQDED

Molecule | pIC50 [1] | pIC50 [2]
CC(C)C[C@H](NC(=O)[C@H](CCCCN)NC(=O)[C@H](CC(C)C)NC(=O)[C@H](CC(C)C)NC(=O)[C@H](Cc1ccccc1)NC(=O)[C@H](Cc1ccc(O)cc1)NC(=O)[C@H](C)NC(=O)[C@@H](N)[C@@H](C)O)C(=O)N[C@@H](C)C(=O)NCC(=O)N[C@@H](CCCN=C(N)N)C(=O)N[C@@H](Cc1c[nH]c2ccccc12)C(N)=O | 4.68 | 5.57
CC(C)C[C@@H](NC(=O)[C@@H](CCCCN)NC(=O)[C@@H](CC(C)C)NC(=O)[C@@H](CC(C)C)NC(=O)[C@@H](Cc1ccccc1)NC(=O)[C@@H](Cc1ccc(O)cc1)NC(=O)[C@@H](C)NC(=O)[C@H](N)[C@H](C)O)C(=O)N[C@H](C)C(=O)NCC(=O)N[C@H](CCCN=C(N)N)C(=O)N[C@H](Cc1c[nH]c2ccccc12)C(N)=O | 4.19 | 4.89
H-EEHEKYHSNW-NH2 | < 2.70 | < 2.70
H-ACWWAGIRQEF-NH2 | < 3.48 | < 3.48
H-ACWGAGIKQEF-NH2 | < 3.48 | < 3.48
H-ACWWAGIKAEF-OH | < 3.48 | < 3.48
H-ESMNKELKKI-NH2 | < 2.70 | < 2.70
H-ACWWAGIKQEF-NH2 | 4.02 | 4.25
H-VHVASGY-NH2 | < 2.70 | < 2.70
H-ACWWAGIKQAF-OH | < 3.48 | < 3.48
H-TAYFLAKLAGRW-OH | < 3.48 | < 3.48
H-TAYFLLKLAGRL-NH2 | 3.50 | 4.42
CC(C)C[C@H](NC(=O)[C@H](CCCCN)NC(=O)[C@H](CC(C)C)NC(=O)[C@H](CC(C)C)NC(=O)[C@H](Cc1ccccc1)NC(=O)[C@H](Cc1ccc(O)cc1)NC(=O)[C@H](C)NC(=O)[C@@H](N)[C@@H](C)O)C(=O)N[C@@H](C)C(=O)N[C@@H](C)C(=O)N[C@@H](CCCN=C(N)N)C(=O)N[C@@H](Cc1c[nH]c2ccccc12)C(=O)O | 3.93 | 4.72
H-TAAFLLKLAGRW-OH | 3.71 | 3.92
H-ACWWAGIAQEF-OH | 4.21 | 4.26
CC(C)C[C@H](NC(=O)[C@H](CCC(N)=O)NC(=O)[C@H](CS)NC(=O)[C@H](CCCCN)NC(=O)[C@H](CC(=O)O)NC(=O)[C@H](CS)NC(=O)[C@H](CO)NC(=O)[C@H](C)N)C(=O)N[C@@H](CCCCN)C(=O)NCC(N)=O (H-ASCDKCQLKG-NH2) | < 2.70 | < 2.70
H-YFLLKL-NH2 | 4.70 | 4.70
H-FGIPYNPQSQ-NH2 | < 3.00 | < 3.00
H-VRDQAEHLKT-NH2 | < 2.70 | < 2.70

Molecule | pIC50 [1] | pIC50 [2]
H-AAYFLLKLAGRW-OH | 4.00 | 4.33
H-IKQEF-NH2 | < 4.00 | < 4.00
CC[C@H](C)[C@H](NC(=O)CNC(=O)[C@@H]1CCCN1C(=O)[C@H](CO)NC(=O)[C@H](CS)NC(=O)[C@H](CC(=O)O)NC(=O)[C@@H](NC(=O)[C@H](CCC(N)=O)NC(=O)CNC(=O)[C@@H](N)Cc1cnc[nH]1)C(C)C)C(=O)N[C@@H](Cc1c[nH]c2ccccc12)C(=O)N[C@@H](CCC(N)=O)C(=O)N[C@@H](CC(C)C)C(=O)N[C@@H](CC(=O)O)C(=O)N[C@@H](CS)C(=O)N[C@H](C(=O)N[C@@H](Cc1cnc[nH]1)C(N)=O)[C@@H](C)O (H-HGQVDCSPGIWQLDCTH-NH2) | 3.00 | 3.00
H-FIHNFKRK-NH2 | < 2.70 | < 2.70
H-WAGIKQ-NH2 | < 4.00 | < 4.00
H-ACWWAGAKQEF-OH | < 3.48 | < 3.48
H-TAYFALKLAGRW-OH | 3.94 | 4.29
H-AAWWAGIKQEF-OH | 3.56 | 3.51
H-ACGWAGIKQEF-NH2 | 4.34 | 4.80
CC[C@@H](C)[C@@H](NC(=O)[C@@H](CCCCN)NC(=O)[C@@H](CCC(N)=O)NC(=O)[C@@H](CCC(=O)O)NC(=O)[C@H](N)Cc1ccccc1)C(=O)NCC(=O)N[C@H](C)C(=O)N[C@H](Cc1c[nH]c2ccccc12)C(=O)N[C@H](Cc1c[nH]c2ccccc12)C(=O)N[C@@H](CS)C(=O)N[C@H](C)C(=O)O | < 3.00 | < 3.00
CC[C@@H](C)[C@@H](NC(=O)CNC(=O)[C@@H](C)NC(=O)[C@@H](Cc1c[nH]c2ccccc12)NC(=O)[C@@H](Cc1c[nH]c2ccccc12)NC(=O)[C@@H](CS)NC(=O)[C@@H](C)N)C(=O)N[C@H](CCCCN)C(=O)N[C@H](CCC(N)=O)C(=O)N[C@H](CCC(=O)O)C(=O)N[C@H](Cc1ccccc1)C(=O)O | < 3.00 | < 3.00
H-PAETGQET-NH2 | < 2.70 | < 2.70
H-HTDNGSNF-NH2 | < 2.70 | < 2.70
CC(C)C[C@@H](NC(=O)[C@@H](C)NC(=O)CNC(=O)[C@@H](CCCN=C(N)N)NC(=O)[C@H](N)Cc1c[nH]c2ccccc12)C(=O)N[C@H](CCCCN)C(=O)N[C@H](CC(C)C)C(=O)N[C@H](CC(C)C)C(=O)N[C@H](Cc1ccccc1)C(=O)N[C@H](Cc1ccc(O)cc1)C(=O)N[C@H](C)C(=O)N[C@@H](C(=O)O)[C@H](C)O | 5.46 | 5.40
H-TAYFLL-NH2 | 3.30 | 3.30
H-TAYFLLKLAGRA-OH | < 3.48 | < 3.48
H-VPRRKAKI-NH2 | < 3.00 | < 3.00
H-ACWAAGIKQEF-OH | < 3.48 | < 3.48
H-GYSAGERIVD-NH2 | < 2.70 | < 2.70

Further lines, results first:

pIC50 [1] | pIC50 [2] | Molecule
< 4.00 | 4.22 | H-ACWWAG-NH2
< 3.48 | < 3.48 | H-TAYALLKLAGRW-OH
4.02 | 4.80 | CC(C)C[C@@H](NC(=O)[C@@H](CCCCN)NC(=O)[C@@H](CC(C)C)NC(=O)[C@@H](CC(C)C)NC(=O)[C@@H](Cc1ccccc1)NC(=O)[C@@H](Cc1ccc(O)cc1)NC(=O)[C@@H](C)NC(=O)[C@H](N)[C@H](C)O)C(=O)N[C@H](C)C(=O)NCC(=O)N[C@H](CCCN=C(N)N)C(=O)N[C@H](Cc1c[nH]c2ccccc12)C(=O)O
4.48 | 4.47 | H-ACAWAGIKQEF-OH
< 2.70 | < 2.70 | H-GRWPVKT-NH2
3.61 | 3.69 | H-ACWWAGIKQEA-OH
< 3.00 | < 3.00 | CC[C@H](C)[C@H](NC(=O)[C@H](CCCCN)NC(=O)[C@H](CCC(N)=O)NC(=O)[C@H](CCC(=O)O)NC(=O)[C@@H](N)Cc1ccccc1)C(=O)NCC(=O)N[C@@H](C)C(=O)N[C@@H](Cc1c[nH]c2ccccc12)C(=O)N[C@@H](Cc1c[nH]c2ccccc12)C(=O)N[C@@H](CS)C(=O)N[C@@H](C)C(=O)O
3.53 | 3.79 | H-ASWWAGIKQEF-NH2
5.39 | 5.52 | H-TAYFLLILAGRW-NH2
< 3.00 | < 3.00 | H-WKGPAKLLWK-NH2
3.73 | 4.96 | H-TASFLLKLAGRW-NH2
4.08 | 4.10 | H-TAYFLLKLAGAW-OH
3.95 | 4.25 | H-TAYFLLALAGRW-OH
4.05 | 4.37 | H-ACWWAAIKQEF-OH
< 3.48 | 3.97 | H-TAYFLLKAAGRW-OH
< 4.00 | < 4.00 | H-KLAGRW-NH2
